Data: US20240277767A1, “METHODS AND USES” (PROLEUKOCYTE AB, priority 2021, published 2024)

Legend:
Assay type in all cases: cell-based, human
NK cells [1] = experiment: [Cr51]-release assay: lysis of tumour target cells by pre-treated NK cells after H2O2 exposure; details: for Lysis of K562 target cells by pre-treated NK cells after H2O2 exposure: 18 h pre-treatment, H2O2 1 h up to 250 μM, E:T 9:1, vs control NK cells; for Suppressive effect of H2O2 on lymphocyte function (killing, degranulation, IFNγ): expanded NK cells and patient derived TIL, pre-treatment; for Dependence of the protective effect on Nrf2 activation: qPCR of Nrf2 target genes and K562 lysis with/without Nrf2 inhibitor ML385
Text: Peripheral blood samples (anonymized by-products of blood donations from healthy adult donors) were purchased from Karolinska University Hospital Blood Bank. Peripheral blood mononuclear cells (PBMC) were isolated from healthy donor buffy coats using density centrifugation with Ficoll® Paque Plus (GE Healthcare). NK cells and CD14^+ monocytes were isolated from PBMCs using NK cell isolation kit or CD14^+ microbeads, respectively (both Miltenyi Biotec), following the manufacturer's instructions. For NK cell expansion, a EBV-LCL feeder cell line was used, irradiated at 100 gy and then co-cultured with NK cells, at the ratio 10:1 LCL:NK, in X-Vivo 20 (Lonza) supplemented with 10% human AB serum and 1000 U/mL IL-2 (Proleukin). From day 6 or 10, NK cells were kept at 0.5×10^6 cells/mL or 1×10^6/mL, respectively. Purity of expanded NK cell was assessed at day 10 by flow cytometry, see below.
Lymphocytes were pre-treated for 18 h with Auranofin (AUF, with the concentration 1 μg/mL for NK cells and 0.5 μg/mL for TIL, if not indicated differently), DL-Sulforaphane (SUL) or Dimethyl Fumarate (DMF) (all Sigma-Aldrich) at indicated concentrations.
(§1) For Nrf2 inhibition, NK cells were treated with 50 μM ML-385 (Sigma-Aldrich) in parallel. For H2O2 treatment, lymphocyte cells were washed and resuspended to 1×10^6 cells/mL in medium and exposed to indicated H2O2 (Sigma-Aldrich) concentration for 1 h at 37° C. Cells were washed with medium and then used for further experiments. For monocyte experiments, autologous NK cell-monocytes or TIL-monocytes were used. NK cells/TIL were isolated and pre-treated with 0.5 μg/mL AUF, as described above, and co-cultured with unstimulated at the ratio, 1:2 M:NK, or stimulated monocytes at the ratio, 1:1 M:NK, if not indicated otherwise. Stimulated monocytes were activated with 100 ng/ml PMA for 1 min, washed and added at indicated ratio, the number of NK cell/TIL was kept constant. As control, H2O2 was used at indicated concentration. Cells were co-cultured for 2 h and then effector cells were stained for intracellular ROS (see flow cytometry) or used as effector cells in Cr^51 release assay (E:T ratio 10:1).
(§2) For cytotoxic assay, a standard 4 h [Cr^51]-release assay was used. Briefly, tumour cells were harvested and labeled with 51Cr (PerkinElmer) and used as target cells. Effector cells, NK cells and T cells, were co-cultured in 96-well V-bottom plate with indicated tumour cells at the stated effector target ratio (E:T). The supernatant was collected onto LUMA plates (Perkin-Elmer) and radioactivity/tumour cell lysis was detected by MicroBeta2 (Perkin Elmer). Target cell killing measured by % specific lysis and calculated using the formula: ((experimental release-spontaneous release)/(maximum release-spontaneous release))*100.
Lymphocytes were pre-treated for 18 h with Auranofin (AUF, with the concentration 1 μg/mL for NK cells and 0.5 μg/mL for TIL. As AUF was reconstituted in DMSO, control NK cells were pre-treated with DMSO with an equivalent volume to the highest compound concentration. For N-acetylcysteine (NAC, Invitrogen) treatment, DMSO pre-treated cells were incubated for 1 h with 5 or 10 mM NAC prior to H2O2 treatment. For H2O2 treatment, lymphocytes were washed and resuspended to 1×10^6 cells/mL in RPMI containing the indicated H2O2 (Sigma-Aldrich) concentration for 1 h at 37° C. 5% CO2. Cells were washed with medium and then used for further experiments.

[2] = system: Nrf2 target genes (NQO1, HMOX1, TXNRD1, Keap1); experiment: qPCR of classical Nrf2 target genes in NK cells; details: kinetic, fold change vs untreated
Method: Lymphocytes were pre-treated with AUF, SUL or DMF as described above. RNA was isolated using TRIzol™ Plus RNA Purification Kit (Invitrogen). cDNA was generated using the iScript™ cDNA Synthesis Kit (Bio-Rad) and qPCR was done using iTaq™ Universal SYBR® Green Supermix (Bio-Rad) in the CFX96 Touch Real-Time PCR Detection System (Bio-Rad). Fold change expression from untreated cells was calculated using the 2^-ΔΔCt formula with b-actin as reference gene. Evaluated genes were NAD(P)H Quinone Dehydrogenase 1 (NQO1), Kelch Like ECH Associated Protein 1 (Keap1), Heme Oxygenase 1 (HMOX1) and Thioredoxin Reductase 1 (TXNRD1).

[3] = system: tumour infiltrating lymphocytes (TIL); experiment: IFNγ release by pre-treated TIL on autologous tumour cells after H2O2 treatment; details: KADA and ANRU melanoma TIL, E:T 4:1, vs control group
Method: ., 2020). […] For Nrf2 inhibition, NK cells were treated with 50 μM ML-385 (Sigma-Aldrich) in parallel. […] Cells were washed with medium and then used for further experiments. For monocyte experiments, autologous NK cell-monocytes or TIL-monocytes were used. […] Stimulated monocytes were activated with 100 ng/ml PMA for 1 min, washed and added at indicated ratio, the number of NK cell/TIL was kept constant. […] For cytokine release assay, NK cells and TIL were cultured with indicated tumour cells at the effector target ratio 4:1 (E:T) for 24 h in U-bottom plates. IFNγ secretion was measured using human IFN-γ ELISA development kit (Mabtech) following the manufacturer's instructions.

NK cells [4] = experiment: ADCC: NK cells with RAJI cells coated with Rituximab or Ofatumumab; details: Rituximab 0.5 μg/mL or Ofatumumab 0.05 μg/mL, E:T 9:1
Method: Lymphocytes were isolated and pre-treated when indicated, with compound and H2O2, as described above. For degranulation/measuring CD107a expression, NK cells were co-cultured with K562 tumour cells at an effector target ratio 1:1 in the presence of anti-CD107a in U-bottom plates. After 2 h, GolgiStop™ and GolgiPlug™ (BD Bioscience) were added and cells were harvested after an additional 4 h co-culture and stained for CD56 and CD3, as described above. For positive control, 25 ng/ml PMA (Sigma Aldrich) and 500 ng/mL Ionomycin (Sigma Aldrich) were added.
as §2
For analyzing ADCC, NK cells were cultured with RAJI cells and Rituximab (0.5 μg/mL, MabThera, Roche) or Ofatumumab (0.05 μg/mL, Arzerra, Novartis).

NK cells [5] = experiment: NK cells co-cultured with PMA-activated autologous monocytes: intracellular ROS and K562 lysis; details: 100 U/mL catalase; intracellular ROS and K562 lysis
Method: as §1
Monocytes were stimulated with 100 ng/ml PMA for 1 min and washed with HBSS (Gibco). Cells were resuspended in HBSS 5% FBS and added to a 96-well Optiplate (Perkin Elmer) containing HBSS 5% FBS and Luminol (56 μM; Sigma). Luminescence was measured immediately using a EnSpire plate reader (Perkin Elmer).
For detection of intracellular ROS levels, for NK cells CellROX™ Deep Red Reagent (Invitrogen) were used. Briefly, NK cells were stained with 2.5 μM CellROX solution in RPMI for 30 min at 37° C. and then stained for flow cytometry with anti-CD56 and anti-CD3 (both Biolegend).
as §2

CC(=O)N[C@@H](CS)C(=O)O [NAC, N-acetylcysteine]
Protection of K562 lysis by control NK cells pre-treated with NAC, compared to AUF (NK cells [1]; 1 h, 5 or 10 mM NAC, increased H2O2 concentrations): less protection

C[S+]([O-])CCCCN=C=S (racemic) [SUL, 1-Isothiocyanato-4-(methanesulfinyl)butane]
Influence on Nrf2 target genes in NK cells compared with AUF [2]: comparable influence | Recognition of autologous tumour cells by TIL (IFNγ production) upon exposure to H2O2 [3]: increased recognition of their autologous tumour cells | Lysis of K562 target cells by pre-treated NK cells after H2O2 exposure (NK cells [1]): comparable protective effects as AUF | Suppressive effect of H2O2 on lymphocyte function (killing, degranulation, IFNγ) (NK cells [1]): counteracts the suppressive effect of H2O2 on lymphocyte function | Dependence of the protective effect on Nrf2 activation (NK cells [1]): dependent on Nrf2 activation

COC(=O)/C=C/C(=O)OC [DMF, Dimethyl (E)-butenedioate]
Influence on Nrf2 target genes in NK cells compared with AUF [2]: comparable influence | Recognition of autologous tumour cells by TIL (IFNγ production) upon exposure to H2O2 [3]: increased recognition of their autologous tumour cells | Lysis of K562 target cells by pre-treated NK cells after H2O2 exposure (NK cells [1]): comparable protective effects as AUF | Suppressive effect of H2O2 on lymphocyte function (killing, degranulation, IFNγ) (NK cells [1]): counteracts the suppressive effect of H2O2 on lymphocyte function | Dependence of the protective effect on Nrf2 activation (NK cells [1]): dependent on Nrf2 activation

Rituximab: antibody therapy targeting CD20
Recognition of antibody-coated RAJI cells by NK cells (killing and CD107a degranulation) (NK cells [4]): efficient recognition of the target cells

Ofatumumab: antibody therapy targeting CD20
Recognition of antibody-coated RAJI cells by NK cells (killing and CD107a degranulation) (NK cells [4]): efficient recognition of the target cells

Cc1ccccc1C(=O)N1CCc2cc(-c3nc(NC(=O)Cc4ccc5c(c4)OCO5)sc3C)ccc21 [ML385]
Effect of ML385 on K562 lysis by DMSO pre-treated control NK cells (NK cells [1]; 50 μM ML385): no effects | Lysis of K562 by NK cells pre-treated with AUF, SUL or DMF in combination with ML385 (NK cells [1]; 50 μM ML385, cells exposed to H2O2): significantly reduced

B1: catalase: an enzyme efficiently converting H2O2 to H2O and O2 (protein, UniProt P04040 2-527, looked up)
Catalase: ADSRDPASDQMQHWKEQRAAQKADVLTTGAGNPVGDKLNVITVGPRGPLLVQDVVFTDEMAHFDRERIPERVVHAKGAGAFGYFEVTHDITKYSKAKVFEHIGKKTPIAVRFSTVAGESGSADTVRDPRGFAVKFYTEDGNWDLVGNNTPIFFIRDPILFPSFIHSQKRNPQTHLKDPDMVWDFWSLRPESLHQVSFLFSDRGIPDGHRHMNGYGSHTFKLVNANGEAVYCKFHYKTDQGIKNLSVEDAARLSQEDPDYGIRDLFNAIATGKYPSWTFYIQVMTFNQAETFPFNPFDLTKVWPHKDYPLIPVGKLVLNRNPVNYFAEVEQIAFDPSNMPPGIEASPDKMLQGRLFAYPDTHRHRLGPNYLHIPVNCPYRARVANYQRDGPMCMQDNQGGAPNYYPNSFGAPEQQPSALEHSIQYSGEVRRFNTANDDNVTQVRAFYVNVLNEEQRKRLCENIAGHLKDAQIFIQKKAVKNFTEVHPDYGSHIQALLDKYNAEKPKNAIHTFVQSGSHLAAREKANL
Difference between activated monocytes or H2O2 treated control NK cells in the presence of catalase (NK cells [5]): no difference | Lysis of K562 target cells by control NK cells with catalase added before H2O2 (NK cells [1]; catalase added to control NK cells before incubation with H2O2): improve the function of the control NK cells in a comparable way to AUF pre-treatment
